Measured values taken from patent US12275731B2, “Azaindole inhibitors of wild-type and mutant forms of LRRK2” (DANA-FARBER CANCER INSTITUTE, INC., priority 2018, dated 2025).

Tests used:
Assay in all cases: KinomeScan profiling
Type in all cases: binding
HUNK = target: T1, HUNK (Homo sapiens, UniProt P57058); details: read-out: % control
T1 sequence (P57058 1-714): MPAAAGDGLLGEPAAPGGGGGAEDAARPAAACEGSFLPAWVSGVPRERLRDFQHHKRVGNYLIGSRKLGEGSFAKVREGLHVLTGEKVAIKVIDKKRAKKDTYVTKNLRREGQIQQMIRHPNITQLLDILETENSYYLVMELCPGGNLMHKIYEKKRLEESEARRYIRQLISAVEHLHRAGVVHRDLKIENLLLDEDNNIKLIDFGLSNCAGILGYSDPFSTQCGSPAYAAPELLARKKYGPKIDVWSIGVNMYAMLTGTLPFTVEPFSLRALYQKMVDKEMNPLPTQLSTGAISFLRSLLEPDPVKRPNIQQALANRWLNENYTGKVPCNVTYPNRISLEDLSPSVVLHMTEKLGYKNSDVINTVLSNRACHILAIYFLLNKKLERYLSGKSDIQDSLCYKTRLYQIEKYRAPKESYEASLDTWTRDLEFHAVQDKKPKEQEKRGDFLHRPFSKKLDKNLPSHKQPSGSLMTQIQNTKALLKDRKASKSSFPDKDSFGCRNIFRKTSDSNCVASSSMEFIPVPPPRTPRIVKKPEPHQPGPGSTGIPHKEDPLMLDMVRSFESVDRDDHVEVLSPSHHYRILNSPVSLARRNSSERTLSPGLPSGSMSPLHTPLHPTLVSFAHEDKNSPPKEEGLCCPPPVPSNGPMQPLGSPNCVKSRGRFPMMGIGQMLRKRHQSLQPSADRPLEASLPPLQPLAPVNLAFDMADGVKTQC
Summary of the method: (§1)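 The panel spans 468 kinases, and each inventive compound was applied at 1 μM from DMSO. Lower % control means stronger binding; the activity cut-off is set at less than 35%.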

CDK7 = CDK7 (Homo sapiens, UniProt P50613); details: CDK7, 1 μM; read-out: % control
Chain of CDK7 (P50613 whole entry): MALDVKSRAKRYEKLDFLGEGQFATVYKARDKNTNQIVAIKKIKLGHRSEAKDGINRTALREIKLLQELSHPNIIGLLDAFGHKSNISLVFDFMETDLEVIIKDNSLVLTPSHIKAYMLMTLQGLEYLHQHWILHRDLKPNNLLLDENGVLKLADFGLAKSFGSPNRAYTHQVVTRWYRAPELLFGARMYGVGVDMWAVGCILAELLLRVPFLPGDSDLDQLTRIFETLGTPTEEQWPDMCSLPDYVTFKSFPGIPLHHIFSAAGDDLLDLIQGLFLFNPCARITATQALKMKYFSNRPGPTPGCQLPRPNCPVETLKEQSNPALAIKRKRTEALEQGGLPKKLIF
Summary of the method: as §1

CAMKK1 = CAMKK1 (Homo sapiens, UniProt Q8N5S9); details: CAMKK1, 1 μM; read-out: % control
Chain of CAMKK1 (Q8N5S9 whole entry): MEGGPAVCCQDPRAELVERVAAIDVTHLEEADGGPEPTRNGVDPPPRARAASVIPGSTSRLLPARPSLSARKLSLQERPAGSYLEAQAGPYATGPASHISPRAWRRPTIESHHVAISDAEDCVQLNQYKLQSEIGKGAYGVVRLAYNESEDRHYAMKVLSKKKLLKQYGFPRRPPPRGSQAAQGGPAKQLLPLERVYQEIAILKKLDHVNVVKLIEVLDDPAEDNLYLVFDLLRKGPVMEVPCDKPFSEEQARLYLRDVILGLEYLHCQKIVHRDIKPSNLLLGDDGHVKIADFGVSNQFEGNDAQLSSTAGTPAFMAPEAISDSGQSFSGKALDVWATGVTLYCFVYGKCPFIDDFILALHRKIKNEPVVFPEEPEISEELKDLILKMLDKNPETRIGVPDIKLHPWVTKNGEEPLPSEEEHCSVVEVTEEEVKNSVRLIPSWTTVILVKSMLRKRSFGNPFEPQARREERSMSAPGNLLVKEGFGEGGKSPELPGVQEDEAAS
Summary of the method: as §1

BLK = target: T2, BLK (Homo sapiens, UniProt P51451); details: read-out: % control
T2 construct: purchased KinomeScan®
T2 sequence (P51451 whole entry): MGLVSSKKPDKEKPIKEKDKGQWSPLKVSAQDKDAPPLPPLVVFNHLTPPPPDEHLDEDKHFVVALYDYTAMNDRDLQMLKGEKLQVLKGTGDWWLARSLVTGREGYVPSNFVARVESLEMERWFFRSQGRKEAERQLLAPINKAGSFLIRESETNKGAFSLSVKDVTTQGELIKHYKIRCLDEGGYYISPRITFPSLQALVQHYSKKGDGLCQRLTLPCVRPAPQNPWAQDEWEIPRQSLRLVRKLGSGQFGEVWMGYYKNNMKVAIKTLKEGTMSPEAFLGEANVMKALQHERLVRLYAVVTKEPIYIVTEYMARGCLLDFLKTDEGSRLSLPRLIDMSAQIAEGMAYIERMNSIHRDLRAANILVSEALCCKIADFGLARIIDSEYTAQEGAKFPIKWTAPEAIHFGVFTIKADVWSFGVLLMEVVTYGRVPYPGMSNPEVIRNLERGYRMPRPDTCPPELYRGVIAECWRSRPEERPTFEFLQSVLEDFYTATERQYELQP
Summary of the method: as §1

NEK1 = target: T3, NEK1 (Homo sapiens, UniProt Q96PY6); details: NEK1, 1 μM; read-out: % control
T3 sequence (Q96PY6 1-1258): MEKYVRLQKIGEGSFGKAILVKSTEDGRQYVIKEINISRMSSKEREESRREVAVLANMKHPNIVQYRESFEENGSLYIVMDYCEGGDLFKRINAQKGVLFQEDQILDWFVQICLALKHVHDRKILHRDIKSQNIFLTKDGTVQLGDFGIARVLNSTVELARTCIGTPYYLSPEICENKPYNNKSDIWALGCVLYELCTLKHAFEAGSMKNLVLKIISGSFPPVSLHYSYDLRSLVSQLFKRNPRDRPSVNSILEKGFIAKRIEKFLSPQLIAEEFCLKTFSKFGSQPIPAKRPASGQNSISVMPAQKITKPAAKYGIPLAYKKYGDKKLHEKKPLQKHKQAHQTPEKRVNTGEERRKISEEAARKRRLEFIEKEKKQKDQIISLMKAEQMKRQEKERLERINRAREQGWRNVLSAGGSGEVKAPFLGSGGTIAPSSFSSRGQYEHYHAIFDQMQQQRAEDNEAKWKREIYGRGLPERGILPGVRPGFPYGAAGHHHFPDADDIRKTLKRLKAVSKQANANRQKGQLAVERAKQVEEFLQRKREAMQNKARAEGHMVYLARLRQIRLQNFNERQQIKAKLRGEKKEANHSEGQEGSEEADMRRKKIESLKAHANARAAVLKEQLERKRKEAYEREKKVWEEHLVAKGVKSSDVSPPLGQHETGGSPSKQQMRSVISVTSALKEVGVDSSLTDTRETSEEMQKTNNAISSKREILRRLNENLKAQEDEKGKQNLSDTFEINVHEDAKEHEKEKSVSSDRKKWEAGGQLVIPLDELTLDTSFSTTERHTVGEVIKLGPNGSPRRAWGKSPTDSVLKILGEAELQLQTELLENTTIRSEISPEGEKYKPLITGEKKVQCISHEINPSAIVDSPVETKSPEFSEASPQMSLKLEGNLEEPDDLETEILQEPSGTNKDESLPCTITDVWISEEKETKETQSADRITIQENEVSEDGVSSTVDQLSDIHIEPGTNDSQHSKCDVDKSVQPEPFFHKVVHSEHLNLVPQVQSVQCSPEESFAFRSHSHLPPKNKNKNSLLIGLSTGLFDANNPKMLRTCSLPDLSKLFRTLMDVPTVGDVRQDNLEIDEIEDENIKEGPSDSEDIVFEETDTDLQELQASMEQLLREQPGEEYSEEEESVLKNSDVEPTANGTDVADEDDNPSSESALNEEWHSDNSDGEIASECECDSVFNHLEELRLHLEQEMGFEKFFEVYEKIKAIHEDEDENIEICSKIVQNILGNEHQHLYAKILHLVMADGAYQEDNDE
Summary of the method: as §1

PAK2 = PAK2 (Homo sapiens, UniProt Q13177); details: PAK2, 1 μM; read-out: % control
Chain of PAK2 (Q13177 whole entry): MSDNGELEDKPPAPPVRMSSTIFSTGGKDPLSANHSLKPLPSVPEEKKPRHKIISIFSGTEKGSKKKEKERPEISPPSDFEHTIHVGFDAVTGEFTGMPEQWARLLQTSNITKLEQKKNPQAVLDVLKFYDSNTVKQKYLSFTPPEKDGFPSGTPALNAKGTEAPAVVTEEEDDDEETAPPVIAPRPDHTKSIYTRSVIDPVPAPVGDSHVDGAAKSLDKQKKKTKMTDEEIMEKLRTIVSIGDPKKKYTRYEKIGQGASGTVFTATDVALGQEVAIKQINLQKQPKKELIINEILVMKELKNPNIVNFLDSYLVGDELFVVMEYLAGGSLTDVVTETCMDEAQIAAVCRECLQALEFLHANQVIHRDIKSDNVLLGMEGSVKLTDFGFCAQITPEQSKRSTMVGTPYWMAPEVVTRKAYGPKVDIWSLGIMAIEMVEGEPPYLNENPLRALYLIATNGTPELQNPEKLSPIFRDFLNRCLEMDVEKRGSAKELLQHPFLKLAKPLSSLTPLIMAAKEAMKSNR
Summary of the method: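 Test agents were profiled at a single concentration of 1 μM (DMSO vehicle) on a near-complete set of 468 kinases. Signal is reported relative to vehicle (100%) and a fully displacing control (0%).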

WNK2 = WNK2 (Homo sapiens, UniProt Q9Y3S1); details: WNK2, 1 μM; read-out: % control
Summary of the method: as §1

BRK = BRK (Homo sapiens, UniProt Q13882); details: read-out: % control
Chain of BRK (Q13882 whole entry): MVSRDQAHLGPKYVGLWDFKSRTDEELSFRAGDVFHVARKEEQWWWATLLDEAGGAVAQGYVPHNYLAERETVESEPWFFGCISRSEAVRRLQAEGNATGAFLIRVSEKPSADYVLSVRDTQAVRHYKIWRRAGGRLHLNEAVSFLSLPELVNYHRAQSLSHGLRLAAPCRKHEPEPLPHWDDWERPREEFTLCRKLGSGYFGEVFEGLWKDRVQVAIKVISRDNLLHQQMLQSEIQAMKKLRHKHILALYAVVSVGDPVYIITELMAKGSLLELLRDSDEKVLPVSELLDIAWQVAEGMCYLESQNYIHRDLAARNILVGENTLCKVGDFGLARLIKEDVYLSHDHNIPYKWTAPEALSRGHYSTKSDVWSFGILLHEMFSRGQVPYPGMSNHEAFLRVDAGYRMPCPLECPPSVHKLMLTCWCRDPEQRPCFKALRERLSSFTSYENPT
Summary of the method: as §1

MAP4K4 = MAP4K4 (Homo sapiens, UniProt O95819); details: MAP4K4, 1 μM; read-out: % control
Chain of MAP4K4 (O95819 whole entry): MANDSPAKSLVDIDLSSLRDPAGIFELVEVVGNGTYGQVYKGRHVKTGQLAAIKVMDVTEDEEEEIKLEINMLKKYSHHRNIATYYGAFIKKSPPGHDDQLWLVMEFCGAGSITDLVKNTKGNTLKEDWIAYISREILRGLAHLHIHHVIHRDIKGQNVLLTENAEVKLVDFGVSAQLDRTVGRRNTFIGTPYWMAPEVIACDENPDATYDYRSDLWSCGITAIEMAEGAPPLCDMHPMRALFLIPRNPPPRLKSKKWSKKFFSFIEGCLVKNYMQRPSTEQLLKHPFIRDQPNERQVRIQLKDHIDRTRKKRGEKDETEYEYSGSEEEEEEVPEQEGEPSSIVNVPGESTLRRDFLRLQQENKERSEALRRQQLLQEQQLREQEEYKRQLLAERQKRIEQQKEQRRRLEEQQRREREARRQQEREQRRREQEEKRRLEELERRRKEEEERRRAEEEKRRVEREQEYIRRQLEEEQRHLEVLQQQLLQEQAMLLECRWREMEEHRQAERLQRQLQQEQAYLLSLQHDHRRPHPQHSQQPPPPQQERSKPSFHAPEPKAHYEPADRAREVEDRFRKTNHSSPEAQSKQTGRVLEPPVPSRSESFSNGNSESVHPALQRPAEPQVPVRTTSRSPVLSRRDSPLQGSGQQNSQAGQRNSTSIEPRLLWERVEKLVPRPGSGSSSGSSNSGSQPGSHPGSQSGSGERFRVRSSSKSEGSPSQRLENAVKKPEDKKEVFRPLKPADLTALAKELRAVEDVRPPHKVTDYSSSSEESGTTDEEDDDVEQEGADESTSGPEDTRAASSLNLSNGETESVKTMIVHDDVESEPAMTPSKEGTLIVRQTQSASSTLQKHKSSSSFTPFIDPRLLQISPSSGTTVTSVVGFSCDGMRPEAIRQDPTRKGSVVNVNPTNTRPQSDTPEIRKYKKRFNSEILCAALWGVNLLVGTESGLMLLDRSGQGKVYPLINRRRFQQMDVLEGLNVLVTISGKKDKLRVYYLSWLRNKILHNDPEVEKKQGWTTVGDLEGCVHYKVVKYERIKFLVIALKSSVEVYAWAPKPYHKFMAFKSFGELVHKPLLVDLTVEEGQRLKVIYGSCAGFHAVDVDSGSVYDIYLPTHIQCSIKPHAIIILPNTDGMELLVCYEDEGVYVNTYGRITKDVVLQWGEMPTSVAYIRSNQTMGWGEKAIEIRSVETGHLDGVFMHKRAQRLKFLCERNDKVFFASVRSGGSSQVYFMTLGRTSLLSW
Summary of the method: as §1

PAK6 = PAK6 (Homo sapiens, UniProt Q9NQU5); details: PAK6, 1 μM; read-out: % control
Chain of PAK6 (Q9NQU5 whole entry): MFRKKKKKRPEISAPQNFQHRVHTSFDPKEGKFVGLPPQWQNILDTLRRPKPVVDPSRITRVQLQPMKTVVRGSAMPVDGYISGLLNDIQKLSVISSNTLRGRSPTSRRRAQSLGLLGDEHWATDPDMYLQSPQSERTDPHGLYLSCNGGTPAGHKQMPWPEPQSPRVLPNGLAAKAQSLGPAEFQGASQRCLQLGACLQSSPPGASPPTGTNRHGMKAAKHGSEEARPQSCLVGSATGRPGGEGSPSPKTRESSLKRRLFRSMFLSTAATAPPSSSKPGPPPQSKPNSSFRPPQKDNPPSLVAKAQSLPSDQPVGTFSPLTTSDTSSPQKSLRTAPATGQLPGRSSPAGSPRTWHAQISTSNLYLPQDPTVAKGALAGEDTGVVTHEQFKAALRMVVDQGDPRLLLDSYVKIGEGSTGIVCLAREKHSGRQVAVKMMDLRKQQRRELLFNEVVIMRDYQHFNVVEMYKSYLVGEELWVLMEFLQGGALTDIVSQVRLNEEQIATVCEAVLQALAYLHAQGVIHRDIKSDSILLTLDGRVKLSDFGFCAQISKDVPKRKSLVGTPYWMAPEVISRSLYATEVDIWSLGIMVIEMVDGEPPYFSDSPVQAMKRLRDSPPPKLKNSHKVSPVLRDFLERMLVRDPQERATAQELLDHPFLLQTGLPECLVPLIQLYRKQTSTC
Summary of the method: as §1

Compound: CNc1c(-c2cnn([C@H]3CCN(C(C)=O)C[C@@H]3F)c2)cnc2[nH]cc(Cl)c12 [Compound 77, 1-((3S,4S)-4-(4-(3-chloro-4-(methylamino)-1H-pyrrolo[2,3-b]pyridin-5-yl)-1H-pyrazol-1-yl)-3-fluoropiperidin-1-yl)ethan-1-one]
- remaining binding at 1 µM (HUNK): 100%
- remaining binding at 1 µM (CDK7): 94%
- remaining binding at 1 µM (CAMKK1): 74%
- remaining binding at 1 µM (BLK): 100%
- remaining binding at 1 µM (NEK1): 96%
- remaining binding at 1 µM (PAK2): 100%
- remaining binding at 1 µM (WNK2): 92%
- remaining binding at 1 µM (BRK): 95%
- remaining binding at 1 µM (MAP4K4): 58%
- remaining binding at 1 µM (PAK6): 99%

Compound: O=C(c1ccc(-c2cnc3[nH]cc(Cl)c3c2NC2CCCC2)cc1)N1CCC(N2CCOCC2)CC1 [Compound 101, (4-(3-chloro-4-(cyclopentylamino)-1H-pyrrolo[2,3-b]pyridin-5-yl)phenyl)(4-morpholinopiperidin-1-yl)methanone]
- remaining binding at 1 µM (HUNK): 100%
- remaining binding at 1 µM (CDK7): 93%
- remaining binding at 1 µM (CAMKK1): 87%
- remaining binding at 1 µM (BLK): 100%
- remaining binding at 1 µM (NEK1): 100%
- remaining binding at 1 µM (PAK2): 80%
- remaining binding at 1 µM (WNK2): 100%
- remaining binding at 1 µM (BRK): 86%
- remaining binding at 1 µM (MAP4K4): 78%
- remaining binding at 1 µM (PAK6): 99%

Compound: CNc1c(-c2ccc(C(=O)N3CCC(N4CCOCC4)CC3)cc2)cnc2[nH]cc(Cl)c12 [Compound 96, (4-(3-chloro-4-(methylamino)-1H-pyrrolo[2,3-b]pyridin-5-yl)phenyl)(4-morpholinopiperidin-1-yl)methanone]
- remaining binding at 1 µM (HUNK): 100%
- remaining binding at 1 µM (CDK7): 90%
- remaining binding at 1 µM (CAMKK1): 78%
- remaining binding at 1 µM (BLK): 100%
- remaining binding at 1 µM (NEK1): 100%
- remaining binding at 1 µM (PAK2): 96%
- remaining binding at 1 µM (WNK2): 100%
- remaining binding at 1 µM (BRK): 78%
- remaining binding at 1 µM (MAP4K4): 19%
- remaining binding at 1 µM (PAK6): 100%
